According to ChEMBL document CHEMBL5725325, “Combination of kinase inhibitors and uses thereof” (2017):

Experiments:
[1] = molecular target: Phosphatidylinositol 3-kinase regulatory subunit beta (Homo sapiens, UniProt O00459); assay: (§1) PI 3-Kinase HTRF Assay: Briefly, the assay is a time resolved FRET assay that indirectly measures PIP3 product formed by the activity of a PI3-K. The kinase reaction is performed in a microtitre plate (e.g., a 384 well microtitre plate). The total reaction volume is approximately 20 ul per well. In the first step, each well receives 2 ul of test compound in 20% dimethylsulphoxide resulting in a 2% DMSO final concentration. Next, approximately 14.5 ul of a kinase/PIP2 mixture (diluted in 1x reaction buffer) is added per well for a final concentration of 0.25-0.3 ug/ml kinase and 10 uM PIP2. The plate is sealed and incubated for 15 minutes at room temperature. To start the reaction, 3.5 ul of ATP (diluted in 1x reaction buffer) is added per well for a final concentration of 10 uM ATP. The plate is sealed and incubated for 1 hour at room temperature. The reaction is stopped by adding 5 ul of Stop Solution per well and then 5 ul of Detection Mix is added per well. The plate is sealed, incubated for 1 hour at room temperature, and then read on an appropriate plate reader.
[2] = molecular target: T1, Phosphatidylinositol 4,5-bisphosphate 3-kinase catalytic subunit delta isoform (Homo sapiens, UniProt O00329); assay: as §1
T1 sequence (O00329 whole entry): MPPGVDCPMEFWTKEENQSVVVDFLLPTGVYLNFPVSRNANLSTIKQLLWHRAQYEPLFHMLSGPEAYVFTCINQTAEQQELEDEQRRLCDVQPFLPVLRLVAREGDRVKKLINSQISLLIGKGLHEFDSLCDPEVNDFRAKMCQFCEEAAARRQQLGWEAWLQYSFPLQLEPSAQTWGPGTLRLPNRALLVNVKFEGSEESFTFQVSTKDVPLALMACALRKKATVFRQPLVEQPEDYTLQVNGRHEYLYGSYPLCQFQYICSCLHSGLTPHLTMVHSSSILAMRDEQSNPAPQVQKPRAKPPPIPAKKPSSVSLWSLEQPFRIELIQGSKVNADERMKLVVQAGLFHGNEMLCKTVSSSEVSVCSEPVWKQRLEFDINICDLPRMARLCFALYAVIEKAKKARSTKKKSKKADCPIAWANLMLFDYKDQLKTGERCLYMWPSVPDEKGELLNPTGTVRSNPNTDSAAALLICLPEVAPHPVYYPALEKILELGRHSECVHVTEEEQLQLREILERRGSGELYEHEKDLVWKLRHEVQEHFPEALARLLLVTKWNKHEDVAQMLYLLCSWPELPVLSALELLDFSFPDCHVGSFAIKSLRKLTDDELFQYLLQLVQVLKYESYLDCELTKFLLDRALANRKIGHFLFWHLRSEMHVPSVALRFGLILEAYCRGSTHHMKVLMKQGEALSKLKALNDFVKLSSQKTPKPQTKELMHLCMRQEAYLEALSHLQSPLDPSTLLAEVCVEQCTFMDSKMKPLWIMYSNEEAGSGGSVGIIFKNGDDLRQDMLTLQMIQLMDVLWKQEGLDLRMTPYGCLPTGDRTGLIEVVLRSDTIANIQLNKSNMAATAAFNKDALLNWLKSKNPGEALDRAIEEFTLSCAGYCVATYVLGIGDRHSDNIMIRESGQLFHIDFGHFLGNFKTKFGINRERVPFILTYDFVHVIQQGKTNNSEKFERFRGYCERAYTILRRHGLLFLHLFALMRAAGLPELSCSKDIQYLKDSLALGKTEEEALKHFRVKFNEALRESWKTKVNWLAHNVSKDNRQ

[3] = molecular target: Phosphatidylinositol 4,5-bisphosphate 3-kinase catalytic subunit gamma isoform (Homo sapiens, UniProt P48736); assay: as §1
[4] = as §1

Chain of Phosphatidylinositol 3-kinase regulatory subunit beta (O00459 whole entry): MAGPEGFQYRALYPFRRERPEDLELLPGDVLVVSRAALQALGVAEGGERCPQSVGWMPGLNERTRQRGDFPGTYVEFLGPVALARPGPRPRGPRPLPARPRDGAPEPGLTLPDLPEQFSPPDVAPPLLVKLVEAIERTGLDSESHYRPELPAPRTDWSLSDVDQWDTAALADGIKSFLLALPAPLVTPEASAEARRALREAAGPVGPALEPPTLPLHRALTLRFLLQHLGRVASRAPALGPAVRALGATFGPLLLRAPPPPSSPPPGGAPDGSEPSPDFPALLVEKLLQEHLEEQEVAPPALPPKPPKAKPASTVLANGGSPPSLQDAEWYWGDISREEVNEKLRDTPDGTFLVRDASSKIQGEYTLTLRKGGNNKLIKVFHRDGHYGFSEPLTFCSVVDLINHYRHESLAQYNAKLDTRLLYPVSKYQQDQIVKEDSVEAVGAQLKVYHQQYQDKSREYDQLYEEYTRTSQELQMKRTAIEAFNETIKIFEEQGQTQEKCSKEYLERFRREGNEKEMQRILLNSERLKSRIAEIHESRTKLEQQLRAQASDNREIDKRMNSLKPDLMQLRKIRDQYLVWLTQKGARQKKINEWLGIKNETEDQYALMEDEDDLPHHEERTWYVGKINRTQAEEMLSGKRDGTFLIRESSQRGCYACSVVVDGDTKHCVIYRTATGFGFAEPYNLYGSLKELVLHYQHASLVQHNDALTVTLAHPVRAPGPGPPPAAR
Chain of Phosphatidylinositol 4,5-bisphosphate 3-kinase catalytic subunit gamma isoform (P48736 whole entry, canonical isoform): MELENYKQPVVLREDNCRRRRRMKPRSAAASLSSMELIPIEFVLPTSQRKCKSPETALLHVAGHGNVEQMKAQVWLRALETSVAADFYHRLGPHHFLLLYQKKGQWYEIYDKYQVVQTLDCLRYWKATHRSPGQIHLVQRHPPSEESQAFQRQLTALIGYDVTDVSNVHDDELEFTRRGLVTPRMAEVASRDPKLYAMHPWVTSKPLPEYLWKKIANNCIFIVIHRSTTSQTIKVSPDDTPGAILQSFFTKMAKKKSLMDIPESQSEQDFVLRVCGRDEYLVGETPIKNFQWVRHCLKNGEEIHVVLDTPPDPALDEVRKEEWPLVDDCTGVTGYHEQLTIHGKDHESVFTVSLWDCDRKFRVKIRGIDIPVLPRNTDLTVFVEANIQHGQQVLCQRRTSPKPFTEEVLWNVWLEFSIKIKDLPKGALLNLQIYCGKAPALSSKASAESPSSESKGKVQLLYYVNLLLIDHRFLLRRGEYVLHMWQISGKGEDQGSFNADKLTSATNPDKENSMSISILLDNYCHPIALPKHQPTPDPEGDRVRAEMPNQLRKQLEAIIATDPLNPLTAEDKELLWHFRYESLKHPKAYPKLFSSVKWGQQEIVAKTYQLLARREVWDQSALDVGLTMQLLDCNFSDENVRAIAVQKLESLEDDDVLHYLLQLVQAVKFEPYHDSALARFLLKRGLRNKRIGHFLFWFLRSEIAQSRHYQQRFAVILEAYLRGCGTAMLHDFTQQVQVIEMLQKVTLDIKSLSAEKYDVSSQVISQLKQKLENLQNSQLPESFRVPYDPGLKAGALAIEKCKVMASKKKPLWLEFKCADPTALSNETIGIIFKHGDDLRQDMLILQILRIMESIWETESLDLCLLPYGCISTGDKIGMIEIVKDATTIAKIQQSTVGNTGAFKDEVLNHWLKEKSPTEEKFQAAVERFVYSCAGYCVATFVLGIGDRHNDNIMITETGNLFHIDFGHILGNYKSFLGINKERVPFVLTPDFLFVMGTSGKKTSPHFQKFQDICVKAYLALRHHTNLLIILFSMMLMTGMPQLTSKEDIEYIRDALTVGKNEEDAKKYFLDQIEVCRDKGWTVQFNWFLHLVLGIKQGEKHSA

Row | Compound | IC50 [1] [nM] | IC50 [3] [nM] | IC50 [4] [nM] | further results
1 | C[C@@H](N)C(=O)N1CCN(c2cnc3ccc(-c4ccc5oc(N)nc5c4)nc3n2)CC1 | < 100 |  |  | 
2 | Nc1nc2cc(-c3ccc4ncc(C(=O)N5CCC(N6CCC(F)(F)C6)C5)n4c3)ccc2o1 (stereo not drawn) |  | < 10000 |  | IC50 [2]: < 10000 nM
3 | Nc1nc2cc(-c3ccc4ncc(N5CCN(C(=O)C6CCCN6)CC5)nc4c3)ccc2o1 (stereo not drawn) | < 100 |  | < 100 | 
4 | Nc1nc2cc(-c3ccc4ncn(-c5ccccc5)c4c3)ccc2o1 |  | < 1000 |  | 
5 | C[C@@H]1COCCN1C1CN(c2cnc3ccc(-c4ccc5oc(N)nc5c4)nc3n2)C1 |  |  | < 100 | 
6 | CC(C)(N)C(=O)N1CCN(c2cnc3ccc(-c4ccc5oc(N)nc5c4)nc3n2)CC1 | < 10000 |  |  | 
